Results published in patent US5616563A, “Glutathione N-hydroxycarbamoyl thioesters and method of inhibiting neoplastic growth” (University of Maryland Baltimore Campus, priority 1994, dated 1997).
Where two headings read alike, the source gives them in different places.

What was measured:
[1] = biological target: T1, human erythrocyte Glx I (Homo sapiens, UniProt Q04760); assay: Inhibition of human erythrocyte glyoxalase I; format: biochemical
T1 construct: Human erythrocyte Glx I was purified to homogeneity from out-dated human blood; from tissue; host or cells: human erythrocytes (out-dated human blood)
T1 sequence (Q04760 2-184 limits assumed): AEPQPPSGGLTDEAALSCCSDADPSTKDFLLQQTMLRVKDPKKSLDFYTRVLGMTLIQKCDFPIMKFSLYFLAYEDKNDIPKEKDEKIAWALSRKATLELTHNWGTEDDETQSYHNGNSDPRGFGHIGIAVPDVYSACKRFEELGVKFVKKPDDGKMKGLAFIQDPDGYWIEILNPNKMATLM

[2] = tested on: Human Leukemia 60 (HL60) cells; assay: Growth inhibition and kill of human leukemia 60 cells; format: cell-based
Experimental: The observation that compounds 2 and 6(c) inhibit tumor cell growth, but were not strongly cytotoxic to tumor cells at the concentrations tested, prompted the synthesis of diethyl esters of compounds 6(a), 6(b), and 6(c). These derivatives were then tested with human leukemia cells (HL60 cells) grown in RPMI/fetal calf serum medium at 37° C.
^c Concentration for 50% cell kill.

[3] = tested on: normal human VA-2 fibroblasts; assay: Toxicity to normal human fibroblasts; format: cell-based
[4] = biological target: T2, yeast Glx I (Saccharomyces cerevisiae, UniProt P50107); assay: Inhibition of yeast glyoxalase I; format: biochemical
T2 construct: purchased Sigma Chem. Co
T2 sequence (P50107 1-326): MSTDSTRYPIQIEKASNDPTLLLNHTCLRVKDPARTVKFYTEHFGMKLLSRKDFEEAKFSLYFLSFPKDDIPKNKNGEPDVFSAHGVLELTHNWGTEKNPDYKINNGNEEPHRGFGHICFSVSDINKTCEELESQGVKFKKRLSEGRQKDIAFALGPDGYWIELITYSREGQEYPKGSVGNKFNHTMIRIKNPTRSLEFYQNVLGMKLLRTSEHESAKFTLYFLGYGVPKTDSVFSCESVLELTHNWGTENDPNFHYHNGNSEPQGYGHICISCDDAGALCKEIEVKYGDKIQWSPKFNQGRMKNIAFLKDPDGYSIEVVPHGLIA

[5] = biological target: T3, glyoxalase I (Saccharomyces cerevisiae, UniProt P50107); conditions: concentration of 50% inhibition of glyoxalase I; c = No inhibitory activity was detected; read-out: I50; cited from earlier work
T3 sequence (P50107 1-326): T2 sequence (P50107 1-326)

[6] = tested on: L1210 leukemia; conditions: concentration for 50% kill of the cell culture; cited from earlier work
[7] = tested on: KB cells; conditions: concentration for 50% kill of the cell culture; cited from earlier work
[8] = biological target: T2, yeast Glx I; conditions: Hamilton et al. 1992; cited from earlier work
[9] = of substituent R; cited from earlier work
[10] = tested on: Melanoma (UACC-62); assay: NCI tumor cell growth inhibition, melanoma UACC-62
Source text: (§1) ^a Concentration for 50% cell growth inhibition versus nodrug
(§2) ^b Concentration for total cell growth inhibition versus nodrug

[11] = tested on: Renal Cancer (ACHN); assay: NCI tumor cell growth inhibition, renal cancer ACHN
Source text: as §1, §2

[12] = tested on: CNS Cancer (SNB-75); assay: NCI tumor cell growth inhibition, CNS cancer SNB-75
Source text: as §1, §2

[13] = tested on: Colon Cancer (KMZOLZ); assay: NCI tumor cell growth inhibition, colon cancer KMZOLZ
Source text: as §1, §2

[14] = tested on: Ovarian Cancer (SK-OV-3); assay: NCI tumor cell growth inhibition, ovarian cancer SK-OV-3
Source text: as §1, §2

[15] = biological target: bovine liver glyoxalase II (Bos taurus, UniProt Q3B7M2); assay: Substrate and inhibition studies with bovine liver glyoxalase II
Experimental: (§3) The standard errors for Vm and Km were obtained by analysis of the initial rate data using the HYPER program of Cleland.
(§4) ^a HEPES buffer (100 mM, pH 7.4), 25° C.
(§5) ^b Listed values are relative to Vm for SD-lactoylglutathione.
(§6) ^c Inhibition constants obtained from using the enediol analogs as

[16] = tested on: Non-Small Cell Lung Cancer (HOP-18); assay: NCI tumor cell growth inhibition, non-small cell lung cancer HOP-18
Source text: as §1, §2

[17] = tested on: CN(O)C(=O)SC[C@H](NC(=O)CC[C@H](N)C(=O)O)C(=O)NCC(=O)O; assay: purified protein, by the assay type; conditions: other: as substrate, HEPES buffer (100 mM, pH 7.4), 25° C.
Experimental: as §3, §4, §5, §6

[18] = Homo sapiens, 48 h, read-out: GI (concentration for 50% cell growth inhibition)
[19] = Homo sapiens, SK-OV-3, read-out: inhibition of cell growth

CCOC(=O)CNC(=O)[C@H](CSC(=O)N(O)c1ccccc1)NC(=O)CC[C@H](N)C(=O)OCC [6a(Et)2]
Ki ([1]; Table 7, read-out: Ki (competitive inhibition constants with human erythrocyte glyoxalase I)): > 1000 µM | cell killing ([2]; HL60, 250 to 300 μM): about 100% | LC50 (concentration for 50% cell kill) ([2]; HL60, 72 hr. incubation): 200 µM | TGI (concentration for total cell growth inhibition) ([2]; HL60, 72 hr. incubation): 126 µM | IC50 ([2]; HL60, 72 hr. incubation, read-out: GI (concentration for 50% cell growth inhibition)): 63 µM | toxicity versus corresponding unethylated species ([2]; HL60 cells, RPMI/fetal calf serum medium, 37° C.): more toxic | inhibition of cell growth ([3]; VA-2 fibroblasts, 250 to 300 μM): 50-80%

CN(O)C(=O)SC[C@H](NC(=O)CC[C@H](N)C(=O)O)C(=O)NCC(=O)O [Compound 2, S-(N-Hydroxy N-Methyl Carbamoyl) Glutathione]
binding energy difference versus deoxy analog 2(a) [4]: about 2.6 Kcal/mole | binds more tightly to active site of Glx I than deoxy analog 2(a) [4]: 80 fold | binds more tightly to yeast Glx I than S-D-lactoylglutathione [4]: over 30 fold | Ki ([4]; read-out: Ki yeast Glx I): 68 µM | Ki ([1]; Phosphate buffer (50 mM, pH 7), 25° C., read-out: Ki Erythrocytes): 1.95 ± 0.21 µM | IC50 [5]: 9 µM | LD50 (L1210) [6]: > 0.20 mM | LD50 (KB) [7]: 0.11 mM | higher affinity of the enzyme versus glycyl-ethyl ester 2(Et) [8]: 10 fold | π (Hansch hydrophobicity constant) [9]: 0.5 | IC50 ([10]; Homo sapiens, UACC-62, 48 h, read-out: GI (concentration for 50% cell growth inhibition)): > 1000 µM | inhibition at 1000 µM ([10]; Homo sapiens, UACC-62, read-out: inhibition of cell growth): 30% | effect on cell growth ([10]; UACC-62, 10^-4 or lower): ineffective | LC50 (concentration for 50% cell kill) ([10]; UACC-62, 48 hrs. incubation): > 1000 µM | TGI (concentration for total cell growth inhibition) ([10]; UACC-62, 48 hrs. incubation): > 1000 µM | LC50 (concentration for 50% cell kill) ([11]; 48 hrs. incubation): > 1000 µM | TGI (concentration for total cell growth inhibition) ([11]; 48 hrs. incubation): > 1000 µM | IC50 [11, 18]: > 1000 µM | inhibition at 1000 µM ([11]; Homo sapiens, read-out: inhibition of cell growth): ~40% | effect on cell growth ([11]; concentrations lower than 10^-3 M): no significant effect | inhibition of cell growth ([12]; CNS human cancer cells, 10^-4 M or lower): less than 10% | IC50 ([12]; Homo sapiens, SNB-75, 48 h, read-out: GI (concentration for 50% cell growth inhibition)): 630 µM | inhibition at 1000 µM ([12]; Homo sapiens, SNB-75, read-out: inhibition of cell growth): 60% | LC50 (concentration for 50% cell kill) ([12]; SNB-75, 48 hrs. incubation): > 1000 µM | TGI (concentration for total cell growth inhibition) ([12]; SNB-75, 48 hrs. incubation): > 1000 µM | IC50 [13, 18]: > 1000 µM | inhibition of cell growth ([13]; KMZOL2, "At this concentration" (printed after 10^-4 and below)): < 30% | effect on cell growth ([13]; KMZOL2, concentrations of 10^-4 and below): no significant effect | LC50 (concentration for 50% cell kill) ([13]; KMZOLZ, 48 hrs. incubation): > 1000 µM | TGI (concentration for total cell growth inhibition) ([13]; KMZOLZ, 48 hrs. incubation): > 1000 µM | IC50 ([14]; Homo sapiens, SK-OV-3, 48 h, read-out: GI (concentration for 50% cell growth inhibition)): 316 µM | inhibition at 100 µM [14, 19]: 20% | inhibition at 1000 µM [14, 19]: > 90% | LC50 (concentration for 50% cell kill) ([14]; SK-OV-3, 48 hrs. incubation): > 1000 µM | TGI (concentration for total cell growth inhibition) ([14]; SK-OV-3, 48 hrs. incubation): ~ 1000 μM | Ki [15]: 426 ± 77 µM | Vm (rel.) ([15]; relative to Vm for S-D-lactoylglutathione, HEPES buffer (100 mM, pH 7.4), 25° C.): (1.7 ± 0.1) × 10^-5 | LC50 (concentration for 50% cell kill) ([16]; HOP-18, 48 hrs. incubation): > 1000 µM | TGI (concentration for total cell growth inhibition) ([16]; HOP-18, 48 hrs. incubation): > 1000 µM | IC50 ([16]; Homo sapiens, HOP-18, 48 h, read-out: GI (concentration for 50% cell growth inhibition)): 630 µM | inhibition at 1000 µM ([16]; Homo sapiens, HOP-18, read-out: cell growth inhibition): > 65%

C[C@@H](O)C(=O)SC[C@H](NC(=O)CC[C@H](N)C(=O)O)C(=O)NCC(=O)O [S-D-lactoylglutathione, reference compound]
Ki [4]: 2230 µM | IC50 [5]: 77 µM | LD50 (L1210) [6]: 0.08 mM | LD50 (KB) [7]: 0.07 mM

N[C@@H](CCC(=O)N[C@@H](CSCc1ccc(Br)cc1)C(=O)NCC(=O)O)C(=O)O [S-p-Bromobenzyl glutathione, reference compound]
LC50 ([2]; HL60 cells, text b533): 50 µM | LC50 ([3]; fibroblasts, text b533): 50 µM

bovine liver glyoxalase II (Bos taurus)
Km [17]: 478 µM
